Measured values: the NIST ThermoML archive (doi:10.1016/j.fluid.2007.07.039)

Assay: xn = mol fraction of the nth substance listed
Settings: Liquid, Taylor dispersion method, x1 = 0

Structure (SMILES) | binary diffusion coefficient (313.16 K, 15000 kPa) [m2/s] | binary diffusion coefficient (313.16 K, 20000 kPa) [m2/s] | binary diffusion coefficient (313.16 K, 25000 kPa) [m2/s] | binary diffusion coefficient (313.16 K, 30000 kPa) [m2/s] | binary diffusion coefficient (313.16 K, 35000 kPa) [m2/s] | binary diffusion coefficient (323.16 K, 15000 kPa) [m2/s] | binary diffusion coefficient (323.16 K, 20000 kPa) [m2/s] | binary diffusion coefficient (323.16 K, 25000 kPa) [m2/s] | binary diffusion coefficient (323.16 K, 30000 kPa) [m2/s] | binary diffusion coefficient (323.16 K, 35000 kPa) [m2/s] | binary diffusion coefficient (333.16 K, 15000 kPa) [m2/s] | binary diffusion coefficient (333.16 K, 20000 kPa) [m2/s] | binary diffusion coefficient (333.16 K, 25000 kPa) [m2/s] | binary diffusion coefficient (333.16 K, 30000 kPa) [m2/s] | binary diffusion coefficient (333.16 K, 35000 kPa) [m2/s]
C=Cc1cccc(C=C)c1 [1,3-diethenylbenzene] + O=C=O | 1.03e-08 | 9.44e-09 | 8.69e-09 | 8.07e-09 | 7.69e-09 | 1.28e-08 | 1.06e-08 | 9.71e-09 | 8.94e-09 | 8.54e-09 | 1.51e-08 | 1.21e-08 | 1.11e-08 | 9.95e-09 | 9.47e-09
COc1ccccc1Br [1-bromo-2-methoxybenzene] + O=C=O | 9.46e-09 | 8.66e-09 | 7.92e-09 | 7.48e-09 | 7.15e-09 | 1.15e-08 | 1.01e-08 | 9.08e-09 | 8.52e-09 | 7.98e-09 | 1.28e-08 | 1.19e-08 | 1.06e-08 | 9.45e-09 | 8.98e-09
COc1ccccc1F [2-fluoroanisole] + O=C=O | 1.02e-08 | 9.27e-09 | 8.69e-09 | 8.01e-09 | 7.68e-09 | 1.25e-08 | 1.05e-08 | 9.89e-09 | 9.14e-09 | 8.65e-09 | 1.43e-08 | 1.23e-08 | 1.1e-08 | 1.03e-08 | 9.67e-09
C=CCc1ccccc1 [2-propenylbenzene] + O=C=O | 1.03e-08 | 9.11e-09 | 8.93e-09 | 8.29e-09 | 7.67e-09 | 1.23e-08 | 1.12e-08 | 1e-08 | 9.35e-09 | 9.01e-09 | 1.41e-08 | 1.22e-08 | 1.15e-08 | 1.05e-08 | 9.87e-09
